# Reference: patent publication US5171838A, “Leu3a binding peptides” (Kureha Kagaku Kogyo Kabushiki Kaisha, priority 1990, dated 1992)
# “Also recorded” adds a separate entry of the source. Where a SMILES comes first, the peptide text is derived from it. Where no end group is shown, it is not given here. [ ]: non-standard residue; d: D form.
# Target: Leu3a binding to CD4
# Test: Leu3a competitive immunoassay (inhibition of biotinylated Leu3a binding to immobilized CD4 membrane fraction)
# Design: species or system human
# Conditions: for IC50 μg/well: D-amino acid-substituted CD4 (49-63); for IC50 μg/well / IC50 /µg/well: peptide amount per well inhibiting Leu3a binding by 50%; for inhibition of Leu3a binding to CD4 (in words): CD4 from MOLT4 cells; for IC50 /µg/well: CD4 fragment peptides, membrane fraction of MOLT4 or CCRF-CEM cells as CD4 source, unit of the source corrected
# Experimental: Then, aliquots of solutions containing labeled Leu3a and the peptide to be tested are added. […] After a suitable period of incubation, the solid matrix is washed to remove unbound components and the labeled Leu3a bound is quantitated. In general, any of a number of conventionally labeled Leu3a preparations may be used, including radioactively labeled or enzyme-labeled Leu3a. However, a biotinylated Leu3a used in conjunction with an appropriate secondary reagent such as a complex of avidin-biotin-horseradish peroxidase is preferred. This secondary reagent specifically binds to the biotinylated Leu3a. A chromogenic substrate is added to the complex, enabling one to measure the amount of Leu3a bound as a function of absorbance.
# Two million cells, suspended in 2 ml of 40 mM HEPES (4-(2-hydroxyethyl)-1-piperazine ethanesulfonic acid) buffer (pH 7.4) containing 1 mM EGTA (ethylene-bis-(oxyethylene-nitrilo)-tetraacetic acid), 1 mM PMSF (phenylmethylsulfonylfluoride), 1,000 KIU/ml aprotinin and 150 mM sodium chloride, were lysed by two (2) successive 15 second cycles of ultrasonication and centrifuged at 100×g for five (5) minutes. The supernatant was collected and centrifuged at 15,000×g for ten minutes. The precipitate was resuspended in 1 ml of 50 mM sodium bicarbonate buffer, ultrasonicated by three (3) successive 15 second cycles, and mixed with 1 ml of 50 mM sodium bicarbonate buffer to obtain the cellular membrane suspension. Then, 50 μl of the membrane suspension was added to each well of a 96 well microtiter plate. After overnight incubation at 4° C., the buffer was removed and the adsorbed membrane fraction was fixed by addition of 50 μl of 10 mM PBS (phosphate buffered saline) containing 0.2% glutaraldehyde. After three (3) minutes at room temperature, the glutaraldehyde buffer was removed and the plates were washed five times with PBS. Then, 350 μl of PBS containing 2% bovine serum albumin (BSA) was added to each well to block subsequently added proteins from binding non-specifically to the plastic. After blocking at room temperature for one (1) hour, the blocking buffer was removed and the plates were washed five times with 0.2% BSA solution in PBS (BPBS).
# The following dilutions of each peptide in BPBS--were prepared: 10 μg/ml; 20 μg/ml; 40 μg/ml; 100 μg/ml; 200 μg/ml, 400 μg/ml; 1 mg/ml and 2 mg/ml. A 50 μl aliquot of each dilution of a selected peptide was added to a well of a microtiter plate, together with 25 μl of a solution containing 600 ng/ml biotin-conjugated Leu3a (Becton Dickinson Immunocytometry Systems) in BPBS so that each well contained either 0.5, 1, 2, 5, 10, 20, 50 or 100 μg of peptide in a total volume of 75 μl. After overnight incubation at 4° C., the reaction mixture was removed and the plates were washed eight times with BPBS containing 0.05% Tween 20.
# A solution containing a complex of avidin DH (reagent A) and biotinylated horseradish peroxidase H (reagent B) was prepared by adding 90 μl of reagent A and 90 μl of reagent B (ABC Kit:Vector Laboratories, Inc.) to 5 ml of BPBS containing 0.05% Tween 20.
# Then, 50 μl of the enzyme complex solution was added to each well, and the plates were incubated at room temperature for four (4) hours. The reaction buffer was removed and the plates were washed eight times with 20 mM imidazole buffered saline containing 0.02% Tween 20. Equal volumes of substrate solution A (ABTS; 2,2'-azino-di[3-ethyl-benzthiazoline sulfonate]) and substrate solution B (hydrogen peroxide) (Hybri-Clonal™ EIA Screening Kit: Kirkegaard & Perry Laboratories, Inc.) were mixed, and 100 μl of the substrate solution mixture was added to each well. After incubation at room temperature for one (1) hour, absorbance at 405 nm was measured by microplate reader model MPR-A4 (Tosoh Co., Ltd.).
# Leu3a binding, as measured by absorbance, was calculated and plotted against peptide concentration to obtain a competitive inhibition curve.
Compound,IC50 μg/well,inhibition of Leu3a binding to CD4 (in words),IC50 /µg/well
"CC(C)C[C@H](NC(=O)[C@H](CCCCN)NC(=O)[C@@H](N)CO)C(=O)N[C@@H](CC(N)=O)C(=O)N[C@@H](CC(=O)O)C(=O)N[C@@H](CCCNC(=N)N)C(=O)N[C@H](C)C(=O)N[C@@H](CC(=O)O)C(=O)N[C@@H](CO)C(=O)N[C@@H](CCCNC(=N)N)C(=O)N[C@H](CCCNC(=N)N)C(=O)N[C@@H](CO)C(=O)N[C@@H](CC(C)C)C(=O)N[C@@H](Cc1c[nH]c2ccccc12)C(=O)N[C@@H](CC(=O)O)C(=O)O [[D-Ala^55,D-Arg^59]-CD4(49-63)] (H-SKLNDR[dA]DSR[dR]SLWD-OH)",23 μg/well,–,–
"CC(C)C[C@H](NC(=O)[C@H](CO)NC(=O)[C@H](CCCNC(=N)N)NC(=O)[C@H](CCCNC(=N)N)NC(=O)[C@@H](CO)NC(=O)[C@H](CC(=O)O)NC(=O)[C@@H](C)NC(=O)[C@H](CCCNC(=N)N)NC(=O)[C@H](CC(=O)O)NC(=O)[C@H](CC(N)=O)NC(=O)[C@H](CC(C)C)NC(=O)[C@H](CCCCN)NC(=O)[C@@H](N)CO)C(=O)N[C@@H](Cc1c[nH]c2ccccc12)C(=O)N[C@@H](CC(=O)O)C(=O)O [[D-Ala^55,D-Ser^57]-CD4(49-63)] (H-SKLNDR[dA]D[dS]RRSLWD-OH)",10 μg/well,–,–
CC(C)C[C@H](NC(=O)[C@H](CO)NC(=O)[C@H](CCCNC(=N)N)NC(=O)[C@H](CCCNC(=N)N)NC(=O)[C@H](CO)NC(=O)[C@H](CC(=O)O)NC(=O)[C@@H](C)NC(=O)[C@H](CCCNC(=N)N)NC(=O)[C@H](CC(=O)O)NC(=O)[C@H](CC(N)=O)NC(=O)[C@H](CC(C)C)NC(=O)[C@H](CCCCN)NC(=O)[C@@H](N)CO)C(=O)N[C@@H](Cc1c[nH]c2ccccc12)C(=O)N[C@@H](CC(=O)O)C(=O)O [[D-Ala^55]-CD4(49-63)] (H-SKLNDR[dA]DSRRSLWD-OH),32 μg/well,–,–
"CC(C)C[C@H](NC(=O)[C@H](CO)NC(=O)[C@H](CCCNC(=N)N)NC(=O)[C@H](CCCNC(=N)N)NC(=O)[C@H](CO)NC(=O)[C@H](CC(=O)O)NC(=O)[C@@H](C)NC(=O)[C@H](CCCNC(=N)N)NC(=O)[C@H](CC(=O)O)NC(=O)[C@@H](CC(N)=O)NC(=O)[C@H](CC(C)C)NC(=O)[C@H](CCCCN)NC(=O)[C@@H](N)CO)C(=O)N[C@@H](Cc1c[nH]c2ccccc12)C(=O)N[C@@H](CC(=O)O)C(=O)O [[D-Asn^52,D-Ala^55]-CD4(49-63)] (H-SKL[dN]DR[dA]DSRRSLWD-OH)",60 μg/well,–,–
CC(C)C[C@H](NC(=O)[C@H](CO)NC(=O)[C@H](CCCNC(=N)N)NC(=O)[C@H](CCCNC(=N)N)NC(=O)[C@H](CO)NC(=O)[C@@H](CC(=O)O)NC(=O)[C@H](C)NC(=O)[C@H](CCCNC(=N)N)NC(=O)[C@H](CC(=O)O)NC(=O)[C@H](CC(N)=O)NC(=O)[C@H](CC(C)C)NC(=O)[C@H](CCCCN)NC(=O)[C@@H](N)CO)C(=O)N[C@@H](Cc1c[nH]c2ccccc12)C(=O)N[C@@H](CC(=O)O)C(=O)O [[D-Asp^56]-CD4(49-63)] (H-SKLNDRA[dD]SRRSLWD-OH),56 μg/well,–,–
KLNDRADSRRSLWD [CD4 (50-63)],–,very weak inhibiting activity,> 500 µg/well
SKLNDRADSRRSLW [CD4 (49-62)],–,very weak inhibiting activity,> 500 µg/well
"SKLNDRADSRRSLWD [CD4 (49-63), ser-lys-leu-asn-asp-arg-ala-asp-ser-arg-arg-ser-leu-trp-asp]",–,strongly inhibited; also recorded: exceptionally strong inhibitory activity,10 µg/well

# Results, then the compound that gave them:
IC50 μg/well,inhibition of Leu3a binding to CD4 (in words),IC50 /µg/well,Compound
36 μg/well,–,–,"CC(C)C[C@H](NC(=O)[C@H](CO)NC(=O)[C@H](CCCNC(=N)N)NC(=O)[C@@H](CCCNC(=N)N)NC(=O)[C@H](CO)NC(=O)[C@H](CC(=O)O)NC(=O)[C@@H](C)NC(=O)[C@H](CCCNC(=N)N)NC(=O)[C@H](CC(=O)O)NC(=O)[C@H](CC(N)=O)NC(=O)[C@H](CC(C)C)NC(=O)[C@H](CCCCN)NC(=O)[C@@H](N)CO)C(=O)N[C@@H](Cc1c[nH]c2ccccc12)C(=O)N[C@@H](CC(=O)O)C(=O)O [[D-Ala^55,D-Arg^58]-CD4(49-63)] (H-SKLNDR[dA]DS[dR]RSLWD-OH)"
25 μg/well,exhibited inhibitory activity,–,"CC(C)C[C@H](NC(=O)[C@H](CO)NC(=O)[C@@H](CCCNC(=N)N)NC(=O)[C@H](CCCNC(=N)N)NC(=O)[C@H](CO)NC(=O)[C@H](CC(=O)O)NC(=O)[C@@H](C)NC(=O)[C@H](CCCNC(=N)N)NC(=O)[C@H](CC(=O)O)NC(=O)[C@H](CC(N)=O)NC(=O)[C@H](CC(C)C)NC(=O)[C@@H](CCCCN)NC(=O)[C@@H](N)CO)C(=O)N[C@@H](Cc1c[nH]c2ccccc12)C(=O)N[C@@H](CC(=O)O)C(=O)O [[D-Lys^50,D-Ala^55,D-Arg^59]-CD4(49-63)] (H-S[dK]LNDR[dA]DSR[dR]SLWD-OH)"
22 μg/well,–,–,"CC(C)C[C@H](NC(=O)[C@@H](CCCCN)NC(=O)[C@@H](N)CO)C(=O)N[C@@H](CC(N)=O)C(=O)N[C@@H](CC(=O)O)C(=O)N[C@@H](CCCNC(=N)N)C(=O)N[C@H](C)C(=O)N[C@@H](CC(=O)O)C(=O)N[C@@H](CO)C(=O)N[C@@H](CCCNC(=N)N)C(=O)N[C@@H](CCCNC(=N)N)C(=O)N[C@@H](CO)C(=O)N[C@H](CC(C)C)C(=O)N[C@@H](Cc1c[nH]c2ccccc12)C(=O)N[C@@H](CC(=O)O)C(=O)O [[D-Lys^50,D-Ala^55,D-Leu^61]-CD4(49-63)] (H-S[dK]LNDR[dA]DSRRS[dL]WD-OH)"
36 μg/well,–,–,"CC(C)C[C@H](NC(=O)[C@H](CO)NC(=O)[C@H](CCCNC(=N)N)NC(=O)[C@H](CCCNC(=N)N)NC(=O)[C@H](CO)NC(=O)[C@H](CC(=O)O)NC(=O)[C@@H](C)NC(=O)[C@H](CCCNC(=N)N)NC(=O)[C@H](CC(=O)O)NC(=O)[C@H](CC(N)=O)NC(=O)[C@H](CC(C)C)NC(=O)[C@@H](CCCCN)NC(=O)[C@@H](N)CO)C(=O)N[C@@H](Cc1c[nH]c2ccccc12)C(=O)N[C@@H](CC(=O)O)C(=O)O [[D-Lys^50,D-Ala^55]-CD4(49-63)] (H-S[dK]LNDR[dA]DSRRSLWD-OH)"
–,–,500 µg/well,KNSNQIKILGNQGSFLTKG [CD4 (29-47)]
